Legend:
[1] = Cytotoxicity against HEK293 cells expressing ACE2 cells assessed as reduction in cell viability relative to control; settings: human
[2] = Cytotoxicity against African green monkey Vero E6 cells expressing ACE2 cells assessed as reduction in cell viability relative to control; settings: chlorocebus sabaeus
Vero C1008 = assay: Cytotoxicity against African green monkey Vero E6 cells expressing ACE2 cells assessed as reduction in cell viability; settings: Chlorocebus sabaeus
HEK293 = assay: Cytotoxicity against HEK293 cells expressing ACE2 cells assessed as reduction in cell viability; settings: Homo sapiens
SARS-CoV-2 [3] = assay: Antiviral activity against pseudovirus SARS-CoV-2 spike protein infected in HEK293 cells expressing ACE2 assessed as reduction in pseudotyped particle entry incubated for 48 hrs incubation by luminescence assay relative to control; assay type: functional, Severe acute respiratory syndrome coronavirus 2
SARS-CoV-2 [4] = assay: microbe, parasite or virus in culture; assay type: functional, organism-based, Vero E6; settings: Severe acute respiratory syndrome coronavirus 2, Vero C1008, 72 h
[5] = tested on: Vesicular stomatitis virus; assay: microbe, parasite or virus in culture; assay type: functional, organism-based
SARS-CoV-2 [6] = assay type: functional, Severe acute respiratory syndrome coronavirus 2, Vero E6; settings: time 72 hrs
SARS-CoV-2 [7] = assay: Antiviral activity against pseudovirus SARS-CoV-2 spike protein infected in HEK293 cells expressing ACE2 assessed as reduction in pseudotyped particle entry incubated for 48 hrs incubation by luminescence assay; assay type: functional, organism-based; settings: Severe acute respiratory syndrome coronavirus 2, HEK293, 48 h
SARS-CoV = assay: microbe, parasite or virus in culture; assay type: functional, organism-based; settings: Severe acute respiratory syndrome-related coronavirus, Huh-7, 24 h
[8] = Vesicular stomatitis virus, read-out: IC50

SMILES | Emax [1] [%] | Emax [2] [%] | IC50 (Vero C1008) [µM] | IC50 (HEK293) [µM] | Efficacy (SARS-CoV-2 [3]) [%] | IC50 (SARS-CoV-2 [4]) [µM] | IC50 [5, 8] [µM] | Efficacy (SARS-CoV-2 [6]) [%] | IC50 [5] | IC50 (SARS-CoV-2 [7]) [µM] | IC50 (SARS-CoV) [µM]
CC(Nc1nc(N2CCNCC2)nc2ccccc12)c1ccccc1N (configuration not stated) | 0 | 0 | > 20 | > 57.5 | 70.2 | 12.6 | 39.8 | 31.5 | – | – | –
CN1CCC[C@@H]1CCO[C@](C)(c1ccccc1)c1ccc(Cl)cc1.O=C(O)/C=C/C(=O)O [CLEMASTINE FUMARATE] | – | – | – | – | – | – | – | – | Not Active | – | –
C[C@H](Nc1nc(N2CCNCC2)nc2ccccc12)c1ccccc1 | 0 | 0 | > 20 | > 57.5 | 94.3 | – | > 57.5 | 87.8 | – | 15.8 | –
CC(Nc1nc(N2CCC(=O)CC2)nc2ccccc12)c1ccccc1 (configuration not stated) | 0 | 0 | – | > 57.5 | 100 | 13 | > 57.5 | 48.5 | – | 31.6 | –
CC(Nc1nc(N2CCOCC2)nc2ccccc12)c1ccccc1 (configuration not stated) | 25.1 | 23 | > 20 | > 57.5 | 94.1 | > 20 | > 57.5 | – | – | 22.4 | –
CC(Nc1nc(N2CCNCC2)nc2cc(Br)ccc12)c1ccccc1 (configuration not stated) | 72.1 | 91.5 | 14.1 | 39.8 | 97.1 | 7.94 | 7.94 | 139.9 | – | 8.91 | –
CC(Nc1nc(N2CCNCC2)nc2ccc(F)cc12)c1ccccc1 (configuration not stated) | 0 | 11.8 | > 20 | > 57.5 | 70.6 | 7.94 | > 57.5 | 101.3 | – | 15.8 | –
CC(Nc1nc(N2CCNCC2)nc2cc(-c3ccccc3)ccc12)c1ccccc1 (configuration not stated) | 96.7 | 116 | 7.94 | 39.8 | – | 4.47 | 35.5 | 79 | – | 12.6 | –
CC(Nc1nc(N2CCNCC2)nc2ccc(-c3ccccc3)cc12)c1ccccc1 (configuration not stated) | 20.8 | 88.5 | 14.1 | > 57.5 | 100 | 7.94 | > 57.5 | 81.6 | – | 15.8 | –
CC(Nc1nc(N2CCNCC2)nc2ccccc12)c1c(F)cccc1F (configuration not stated) | 0 | 12.8 | – | > 57.5 | 88.9 | 14.1 | > 57.5 | 79.9 | – | 22.4 | 1.65

From ChEMBL document CHEMBL4823303, “Discovery of Small Molecule Entry Inhibitors Targeting the Fusion Peptide of SARS-CoV-2 Spike Protein” (ACS Med Chem Lett, 2021)
